Source: the NIST ThermoML archive (doi:10.1021/je500498m)
Several values for one entry are separate records, joined by “and”; a condition that tells them apart may be missing. Equal entries are not always repeated. ± gives the expanded uncertainty stated by the source.

Columns and labels:
[1] = for speed of sound: 100 kPa, Sing-around technique in a fixed-path interferometer; for speed of sound / viscosity / mass density: Liquid; for viscosity / mass density: 101 kPa; for viscosity: Falling or rolling sphere viscometry; for mass density: Vibrating tube method; for surface tension liquid-gas: 294.4 K, Pendant drop shape
[2] = xn = mol fraction of the nth substance listed; settings: x1 = 1; for speed of sound: 100 kPa, Sing-around technique in a fixed-path interferometer; for speed of sound / viscosity / mass density: Liquid; for viscosity / mass density: 101 kPa; for viscosity: Falling or rolling sphere viscometry; for mass density: Vibrating tube method; for surface tension liquid-gas: 294.4 K, Pendant drop shape

CCCCCCCCCCCCCCCC [hexadecane]
[1]
Settings | mass density [kg/m3] | speed of sound [m/s] | viscosity
293.15 K | 773.49 ± 0.33 | 1357.3 ± 0.9 | 3.44 ± 0.03 mPa·s
303.15 K | 766.55 ± 0.34 | 1320 ± 0.9 | 2.72 ± 0.02 mPa·s
313.15 K | 759.63 ± 0.34 | 1283.3 ± 0.9 | –
323.15 K | 752.71 ± 0.34 | 1247.3 ± 0.9 | 1.82 ± 0.02 mPa·s
333.15 K | 745.79 ± 0.34 | 1212 ± 0.9 | 1.54 ± 0.02 mPa·s and 1.53 ± 0.02 mPa·s
343.15 K | 738.9 ± 0.3 | – | 1.31 ± 0.02 mPa·s
353.15 K | 731.8 ± 0.3 | – | 1.13 ± 0.01 mPa·s
363.15 K | 724.7 ± 0.3 | – | 0.99 ± 0.01 mPa·s
373.15 K | 717.5 ± 0.3 | – | 0.87 ± 0.01 mPa·s

Settings | surface tension liquid-gas [mN/m]
[1] | 27.3 ± 0.4

CCc1ccccc1 [ethylbenzene]
[1]
Settings | mass density [kg/m3] | speed of sound [m/s] | viscosity [mPa·s]
293.15 K | 866.95 ± 0.31 | 1339.7 ± 0.7 | 0.67 ± 0.01
303.15 K | 858.15 ± 0.31 | 1298.1 ± 0.7 | 0.59 ± 0.01
313.15 K | 849.29 ± 0.31 | 1256.9 ± 0.7 | –
323.15 K | 840.38 ± 0.31 | 1216.4 ± 0.7 | 0.48 ± 0.01
333.15 K | 831.4 ± 0.32 | 1176.4 ± 0.7 | 0.44 ± 0.01
343.15 K | 822.3 ± 0.3 | – | 0.4 ± 0.01
353.15 K | 813.1 ± 0.3 | – | 0.36 ± 0.01
363.15 K | 803.7 ± 0.3 | – | 0.33 ± 0.01
373.15 K | 794.2 ± 0.3 | – | 0.31 ± 0.01

Settings | surface tension liquid-gas [mN/m]
[1] | 29.2 ± 0.4

Cc1ccccc1 [toluene] + CCCCCCCCCCCCCCCC
[2]
Settings | mass density [kg/m3] | speed of sound [m/s] | viscosity [mPa·s]
293.15 K | 866.84 ± 0.31 | 1326.8 ± 0.8 | 0.59 ± 0.01
303.15 K | 857.53 ± 0.31 | 1283.7 ± 0.7 | 0.52 ± 0.01
313.15 K | 848.14 ± 0.32 | 1241.1 ± 0.7 | –
323.15 K | 838.7 ± 0.32 | 1199 ± 0.7 | 0.42 ± 0.01
333.15 K | 829.16 ± 0.32 | 1157.6 ± 0.7 | 0.38 ± 0.01
343.15 K | 819.6 ± 0.3 | – | 0.35 ± 0.01
353.15 K | 809.7 ± 0.3 | – | 0.32 ± 0.01
363.15 K | 799.7 ± 0.3 | – | 0.27 ± 0.01

Settings | surface tension liquid-gas [mN/m]
[2] | 28.4 ± 0.4

Cc1ccccc1 [toluene]
[1]
Settings | mass density [kg/m3] | speed of sound [m/s] | viscosity [mPa·s]
293.15 K | 866.84 ± 0.31 | 1326.8 ± 0.8 | 0.59 ± 0.01
303.15 K | 857.53 ± 0.31 | 1283.7 ± 0.7 | 0.52 ± 0.01
313.15 K | 848.14 ± 0.32 | 1241.1 ± 0.7 | –
323.15 K | 838.7 ± 0.32 | 1199 ± 0.7 | 0.42 ± 0.01
333.15 K | 829.16 ± 0.32 | 1157.6 ± 0.7 | 0.38 ± 0.01
343.15 K | 819.6 ± 0.3 | – | 0.35 ± 0.01
353.15 K | 809.7 ± 0.3 | – | 0.32 ± 0.01
363.15 K | 799.7 ± 0.3 | – | 0.27 ± 0.01

Settings | surface tension liquid-gas [mN/m]
[1] | 28.4 ± 0.4

CCc1ccccc1 [ethylbenzene] + CCCCCCCCCCCCCCCC
[2]
Settings | mass density [kg/m3] | speed of sound [m/s] | viscosity [mPa·s]
293.15 K | 866.95 ± 0.31 | 1339.7 ± 0.7 | 0.67 ± 0.01
303.15 K | 858.15 ± 0.31 | 1298.1 ± 0.7 | 0.59 ± 0.01
313.15 K | 849.29 ± 0.31 | 1256.9 ± 0.7 | –
323.15 K | 840.38 ± 0.31 | 1216.4 ± 0.7 | 0.48 ± 0.01
333.15 K | 831.4 ± 0.32 | 1176.4 ± 0.7 | 0.44 ± 0.01
343.15 K | 822.3 ± 0.3 | – | 0.4 ± 0.01
353.15 K | 813.1 ± 0.3 | – | 0.36 ± 0.01
363.15 K | 803.7 ± 0.3 | – | 0.33 ± 0.01
373.15 K | 794.2 ± 0.3 | – | 0.31 ± 0.01

Settings | surface tension liquid-gas [mN/m]
[2] | 29.2 ± 0.4
